According to publication PMC6027665, “Synthesis and Cytotoxicity Evaluation of Novel Asymmetrical Mono-Carbonyl Analogs of Curcumin (AMACs) against Vero, HeLa, and MCF7 Cell Lines” (Scientia Pharmaceutica, 2018):
≈ marks a conversion by molar mass, not a printed value. Read-outs that look alike come from different tables or passages of the source.

Tests used:
[1] = test system: Vero cell lines (ATCC CCL-81); assay: MTT proliferation assay, Vero cell lines (normal cells); type: cell-based, African green monkey; conditions: 48 h incubation, mean ± SD (n = 3)
Protocol: (§1) The cytotoxic activity of the synthesized compounds was evaluated against human cervix carcinoma (HeLa, ATCC CCL-2) cell lines, human estrogen-dependent breast carcinoma (MCF7, ATCC HTB-22) cell lines, and kidney of an African green monkey (Vero, ATCC CCL-81) as a normal cell lines using the methyl thiazolyl tetrazolium (MTT) method conducted according to the MTT assay protocol published by the American Type Culture Collection (ATCC). Cisplatin was used as a reference drug. Curcumin was also evaluated as a comparative compound on the tests against Vero and MCF7 cell lines, and doxorubicin was evaluated as an additional comparator on the test against MCF7 cell lines. The assay detects the reduction of yellow tetrazolium (MTT) by metabolically active cells to be purple formazan measured using spectrophotometry.
(§2) The cells lines were seeded into 96-well plates at a density of 5000 cells per well, replenished with growth media consisting of Dulbecco’s Modified Eagle’s medium (D-MEM) for Vero or Roswell Park Memorial Institute (RPMI) 1640 medium for MCF7 and HeLa, 5% Fetal Bovine Serum (FBS), 100 U/mL penicillin, and 100 μg/mL streptomycin. The cells were incubated at 37 °C in 5% CO2 for 24 h. Then, a series concentrations of the tested compounds (1.5, 3.1, 6.2, 12.5, 25.0, 50.0, 100.0, and 200.0 µg/mL) were added to each well of the plate and incubated for 48 h. After that, 10 μL fresh solution of MTT reagent was added to each well, and the plate was incubated in a CO2 incubator at 37 °C for 4 h. After the purple precipitate was obtained, the cells were dissolved in ethanol and their optical density was recorded at 595 nm. The experiment was performed in triplicate. Percent proliferation inhibition was calculated using the following formula: Viability cells inhibition (%)=100−[(At−Ab)/(Ac−Ab)] ×100%
(§3) At = absorption of test compound, Ab = absorption of blank, Ac = absorption of control.
(§4) The concentration of the synthesized compounds required to inhibit 50% of the growth of the cell lines (IC50 values) was calculated by analyzing the relationship between concentrations and percent (%) inhibitions using GraphPad Prism 7 version 7.00 for Windows, GraphPad Software, La Jolla, CA, USA, www.graphpad.com.

[2] = test system: HeLa cell lines (human cervix carcinoma, ATCC CCL-2); assay: MTT proliferation assay, HeLa cell lines; type: cell-based; conditions: 48 h incubation, mean ± SD (n = 3)
Protocol: as §1, §2, §3, §4

[3] = test system: MCF7 cell lines (human estrogen-dependent breast carcinoma, ATCC HTB-22); assay: MTT proliferation assay, MCF7 cell lines; type: cell-based
Protocol: as §1, §2, §3, §4

[4] = test system: HeLa cell lines (human cervix carcinoma, ATCC CCL-2); set-up: method as in doi:10.1016/j.toxlet.2016.06.1915; conditions: value of an earlier study; cited from earlier work
[5] = Brine shrimp lethality test (BSLT); type: in vivo; conditions: Artemia salina (brine shrimp) larvae, in vivo, other: compound diluted in the seawater holding the larvae; brine shrimp larvae, 24 h, triplicate
Protocol: (§5) The assay was carried out according to the principle and protocol previously described by Meyer, with slight modification. Artemia salina L. eggs were inserted into a box containing seawater; the box was placed under UV lamp, and after 48 h the eggs hatched into larvae and ready for the test. The compounds (1a–1e, 2a–2e) were diluted in 10 mL seawater containing 10 larvae (1% DMSO (v/v)) until concentrations 20, 200, 500, and 1000 ppm were reached. After 24 h, the live and dead shrimp were counted. The mortality rate (%) was obtained by comparing the number of total dead larvae and the total number of larvae. The experiment was conducted in triplicate. The concentrations (dose)-response (% mortality) data were transformed into a straight line using a logit transformation, and the concentration required to kill 50% of the population (LC50 values) was derived from the best fit line obtained by linear regression analysis.

Artemia salina L. larvae = assay: Brine shrimp lethality test (BSLT); type: in vivo; conditions: Artemia salina, read-out: BSLT toxicity level
Protocol: as §5

[6] = Homo sapiens, MCF7, 48 h incubation, mean ± SD (n = 3), read-out: IC50 (µM) MCF7

Row | Compound | IC50 [1] [µM] | IC50 [2] [µM] | IC50 ([3]; 48 h incubation, mean ± SD (n = 3), read-out: IC50 (µM) MCF7) [µM] | IC50 [4] [µM] | LC50 at 24 h [5] [µM] | LC50 (Artemia salina L. larvae) [µg/mL] | IC50 ([1]; Chlorocebus sabaeus, Vero) [µM] | IC50 ([2]; Homo sapiens) [µM] | IC50 [3, 6] [µM] | IC50 ([3]; Homo sapiens, MCF7, same value in µg/mL, read-out: IC50 MCF7) [µg/mL]
1 | N.N.[Cl][Pt][Cl] [Cisplatin, reference compound] | 84.7 ± 2.09 | 67.6 ± 2.04 | 12.8 ± 1.35 | 12.3 | – | – | – | – | – | –
2 | COc1cc(/C=C2\CCC/C(=C\c3ccccc3)C2=O)ccc1O [Compound 1a, (2E,6E)-2-[(4-hydroxy-3-methoxyphenyl)methylidene]-6-(phenylmethylidene)cyclohexan-1-one] | – | – | – | – | 197 | 30 to 100 (≈ 93.6 to 312 µM) | 13.98 ± 0.04 | > 100 | > 100 | –
3 | COc1ccc(/C=C2\CCC/C(=C\c3ccc(O)c(OC)c3)C2=O)cc1 [Compound 1b, (2E,6E)-2-[(4-hydroxy-3-methoxyphenyl)methylidene]-6-[(4-methoxyphenyl)methylidene] cyclohexan-1-one] | – | – | – | – | 323 | 100 to 1000 (≈ 285 to 2850 µM) | 15.4 ± 0.34 | 95.5 ± 7.19 | 7.86 ± 1.05 | 2.75
4 | COc1cc(/C=C2\CCC/C(=C\c3ccc(F)cc3)C2=O)ccc1O [Compound 1c, (2E,6E)-2-[(4-hydroxy-3-methoxyphenyl)methylidene]-6-[(4-fluorophenyl)methylidene] cyclohexan-1-one] | – | – | – | – | 177 | 30 to 100 (≈ 88.7 to 296 µM) | 13.4 ± 0.39 | 49.1 ± 1.17 | 10.9 ± 0.79 | –
5 | COc1cc(/C=C2\CCC/C(=C\c3ccc(Cl)cc3)C2=O)ccc1O [Compound 1d, (2E,6E)-2-[(4-hydroxy-3-methoxyphenyl)methylidene]-6-[(4-chlorophenyl)methylidene] cyclohexan-1-one] | – | – | – | – | 204 | 30 to 100 (≈ 84.5 to 282 µM) | 14.1 ± 0.18 | 55.6 ± 1.49 | 35.9 ± 4.57 | –
6 | COc1cc(/C=C2\CCC/C(=C\c3ccc(C)cc3)C2=O)ccc1O [Compound 1e, (2E,6E)-2-[(4-hydroxy-3-methoxyphenyl)methylidene]-6-[(4-methylphenyl)methylidene] cyclohexan-1-one] | – | – | – | – | 78.7 | < 30 | 16.1 ± 0.18 | 61.2 ± 2.86 | 10.4 ± 0.36 | –
7 | CCN(CC)Cc1cc(/C=C2\CCC/C(=C\c3ccccc3)C2=O)cc(OC)c1O [Compound 2a, (2E,6E)-2-({3-[(diethylamino)methyl]-4-hydroxy-5-methoxyphenyl}methylidene)-6-(phenylmethylidene)cyclohexan-1-one] | – | – | – | – | 921 | 100 to 1000 (≈ 247 to 2470 µM) | 4.14 ± 0.21 | 46.6 ± 1.54 | – | –
8 | CCN(CC)Cc1cc(/C=C2\CCC/C(=C\c3ccc(OC)cc3)C2=O)cc(OC)c1O [Compound 2b, (2E,6E)-2-({3-[(diethylamino)methyl]-4-hydroxy-5-methoxyphenyl}methylidene)-6-[(4-methoxyphenyl)methylidene]cyclohexan-1-one] | – | – | – | – | 80.2 | 30 to 100 (≈ 68.9 to 230 µM) | 7.29 ± 0.12 | 69.3 ± 3.17 | – | –
9 | CCN(CC)Cc1cc(/C=C2\CCC/C(=C\c3ccc(F)cc3)C2=O)cc(OC)c1O [Compound 2c, (2E,6E)-2-({3-[(diethylamino)methyl]-4-hydroxy-5-methoxyphenyl}methylidene)-6-[(4-fluorophenyl)methylidene]cyclohexan-1-one] | – | – | – | – | 88.4 | 30 to 100 (≈ 70.8 to 236 µM) | 4.23 ± 0.32 | 41.1 ± 0.16 | – | –
10 | CCN(CC)Cc1cc(/C=C2\CCC/C(=C\c3ccc(Cl)cc3)C2=O)cc(OC)c1O [Compound 2d, (2E,6E)-2-({3-[(diethylamino)methyl]-4-hydroxy-5-methoxyphenyl}methylidene)-6-[(4-chlorophenyl)methylidene]cyclohexan-1-one] | – | – | – | – | 29.8 | < 30 | 3.94 ± 0.07 | 40.6 ± 0.98 | – | –
11 | CCN(CC)Cc1cc(/C=C2\CCC/C(=C\c3ccc(C)cc3)C2=O)cc(OC)c1O [Compound 2e, (2E,6E)-2-({3-[(diethylamino)methyl]-4-hydroxy-5-methoxyphenyl}methylidene)-6-[(4-methylphenyl)methylidene]cyclohexan-1-one] | – | – | – | – | 1700 | 100 to 1000 (≈ 238 to 2380 µM) | 15.02 ± 0.14 | 76.6 ± 4.27 | 14.6 ± 1.96 | –
12 | COc1cc(/C=C/C(=O)CC(=O)/C=C/c2ccc(O)c(OC)c2)ccc1O [Curcumin] | – | – | – | – | – | – | 31.4 ± 0.41 | – | 10.5 ± 1.1 | –
13 | COc1cccc2c1C(=O)c1c(O)c3c(c(O)c1C2=O)C[C@@](O)(C(=O)CO)C[C@@H]3O[C@H]1C[C@H](N)[C@H](O)[C@H](C)O1 [Doxorubicin, reference compound] | – | – | – | – | – | – | – | – | < 2.94 | –
